Calls of active or inactive are those of the source. The rule behind the calls is not given here.
Test system: GENE-TOX genotoxicity assays, various organisms and cells
Experiment: GENE-TOX mutagenicity studies
Settings: for call: Assay Type: In vivo carcinogenicity studies
[1] = Species/Cell Type: Mammalian polychromatic erythrocytes, Assay Type: Micronucleus test, chromosome aberrations, Assay Code: MNTT, Evaluation Type: Evaluation B (Post-1980)
[2] = Species/Cell Type: Syrian hamster embryo (SHE) cells, Assay Type: Cell transformation, clonal assay, Assay Code: CTC-, Evaluation Type: Evaluation A (Pre-1980)
[3] = Species/Cell Type: Drosophila melanogaster, Assay Type: Sex-linked recessive lethal gene mutation, Assay Code: SRL+, Evaluation Type: Evaluation A (Pre-1980)
[4] = Species/Cell Type: Allium cepa, Assay Type: Chromosome aberrations, Assay Code: ALC+D, Dose Response: With dose response, Evaluation Type: Evaluation A (Pre-1980)
[5] = Species/Cell Type: Human, Assay Type: Sister-chromatid exchange (SCE) in vitro, Assay Code: SC1T, Evaluation Type: Evaluation B (Post-1980)
[6] = Species/Cell Type: Salmonella typhimurium (one or more of the five standard strains: TA98, TA100, TA1535, TA1537, and TA1538), Assay Type: Histidine reverse gene mutation, Ames assay, Assay Code: SALT, Evaluation Type: Evaluation A (Pre-1980)
[7] = Species/Cell Type: Saccharomyces cerevisiae, Assay Type: Reverse gene mutation, Assay Code: YER+, Evaluation Type: Evaluation A (Pre-1980)
[8] = Species/Cell Type: Escherichia coli polA (W3119 vs P3478), Assay Type: Rec-assay, DNA effects (bacterial DNA repair), Assay Code: RE1+, Evaluation Type: Evaluation A (Pre-1980)
[9] = Species/Cell Type: Mammalian polychromatic erythrocytes, Assay Type: Micronucleus test, chromosome aberrations, Assay Code: MNTT, Evaluation Type: Evaluation A (Pre-1980)
[10] = Species/Cell Type: Saccharomyces cerevisiae, Assay Type: Mitotic recombination or gene conversion, Assay Code: YEH+, Evaluation Type: Evaluation A (Pre-1980)
[11] = Species/Cell Type: Salmonella typhimurium (one or more of the five standard strains: TA98, TA100, TA1535, TA1537, and TA1538), Assay Type: Histidine reverse gene mutation, Ames assay, Assay Code: SAL-, Evaluation Type: Evaluation A (Pre-1980)
[12] = Species/Cell Type: Saccharomyces cerevisiae, Assay Type: Forward gene mutation, Assay Code: YEF+, Evaluation Type: Evaluation A (Pre-1980)

## CO
[1]
  mutagenic call: no conclusion
Species/Cell Type: Neurospora crassa, Assay Type: Aneuploidy, chromosome aberrations, Assay Code: NEN-, Evaluation Type: Evaluation A (Pre-1980)
  mutagenic call: inactive; negative
Species/Cell Type: Nonhuman, Assay Type: Sister-chromatid exchange (SCE) in vitro, Assay Code: SC2-, Evaluation Type: Evaluation A (Pre-1980)
  mutagenic call: inactive; negative
Species/Cell Type: Syrian hamster embryo (SA7/SHE) cells, Assay Type: Cell transformation, viral enhanced, Assay Code: CT7-, Evaluation Type: Evaluation A (Pre-1980)
  mutagenic call: inactive; negative
[2]
  mutagenic call: inactive; negative

## O=C(O)[C@@H]1[C@H](C(=O)O)[C@H]2CC[C@@H]1O2
Species/Cell Type: Allium cepa, Assay Type: Chromosome aberrations, Assay Code: ALC+, Evaluation Type: Evaluation A (Pre-1980)
  mutagenic call: active; positive

## CCCCNP(=O)(N1CC1)N1CC1
[3]
  mutagenic call: active; positive
Species/Cell Type: Nonhuman, Assay Type: Chromosome aberrations in vitro, Assay Code: CY&+, Evaluation Type: Evaluation A (Pre-1980)
  mutagenic call: active; positive
Species/Cell Type: Schizosaccharomyces pombe, Assay Type: Reverse gene mutation, Assay Code: YEZ+, Evaluation Type: Evaluation A (Pre-1980)
  mutagenic call: active; positive

## CN(C)C(=S)SC(=S)N(C)C
Species/Cell Type: Mammalian polychromatic erythrocytes, Assay Type: Micronucleus test, chromosome aberrations, Assay Code: MNT+U, Dose Response: Unconfirmed positive response, Evaluation Type: Evaluation B (Post-1980)
  mutagenic call: active; positive

## Oc1cc(O)cc(O)c1
[4]
  mutagenic call: active; positive

## CC[C@H](C)[C@H](NC(=O)[C@@H](NC(=O)N[C@@H](Cc1ccccc1)C(=O)O)C1CCN=C(N)N1)C(=O)N[C@H](C=O)Cc1ccccc1 (stereo not given in full) (tested in a mixture with another compound)
[5]
  mutagenic call: no conclusion

## CCCCCC(=O)c1c(O)cc2c(c1O)C(=O)c1c(O)cc(O)cc1C2=O
[6]
  mutagenic call: no conclusion

## [O]=[Sn]([OH])[OH]
Species/Cell Type: Bacillus subtilis (H17 vs M45), Assay Type: Rec-assay, spot test, DNA effects (bacterial DNA repair), Assay Code: REW-, Evaluation Type: Evaluation A (Pre-1980)
  mutagenic call: inactive; negative

## CN(N=O)C(=O)C(=O)N(C)N=O
Species/Cell Type: Arabidopsis species, Assay Type: Gene mutation, Assay Code: ARM+, Evaluation Type: Evaluation A (Pre-1980)
  mutagenic call: active; positive
[7]
  mutagenic call: active; positive

## CCCCCC(=O)N(C)N=O
Species/Cell Type: Saccharomyces cerevisiae, Assay Type: Mitotic recombination or gene conversion, Assay Code: YEC+, Evaluation Type: Evaluation A (Pre-1980)
  mutagenic call: active; positive

## CN(C)c1ccc(C(=N)c2ccc(N(C)C)cc2)cc1
[8]
  mutagenic call: active; positive
[9]
  mutagenic call: no conclusion
Species/Cell Type: Nonhuman, Assay Code: CCG+L, Evaluation Type: Evaluation A (Pre-1980)
  call: active; positive
Species/Cell Type: Nonhuman, Assay Type: Sister-chromatid exchange (SCE) in vitro, Assay Code: SC2+*, Activation: With metabolic activation, Evaluation Type: Evaluation B (Post-1980)
  mutagenic call: active; positive
Species/Cell Type: Nonhuman, Assay Type: Sister-chromatid exchange (SCE) in vivo, Assay Code: SC3+, Evaluation Type: Evaluation B (Post-1980)
  mutagenic call: active; positive
[10]
  mutagenic call: active; positive
[11]
  mutagenic call: inactive; negative
Species/Cell Type: Syrian hamster embryo (SHE) cells, Assay Type: Cell transformation, clonal assay, Assay Code: CTCT, Evaluation Type: Evaluation A (Pre-1980)
  mutagenic call: no conclusion

## CC(=O)N(C)N=O
[3]
  mutagenic call: active; positive
Species/Cell Type: Drosophila melanogaster, Sex: Male, Assay Type: Heritable translocation test, chromosome aberrations, Assay Code: DHTT, Evaluation Type: Evaluation A (Pre-1980)
  mutagenic call: no conclusion
[12]
  mutagenic call: active; positive
[7]
  mutagenic call: active; positive

## NO
[4]
  mutagenic call: active; positive
Species/Cell Type: Arabidopsis species, Assay Type: Gene mutation, Assay Code: ARM-, Evaluation Type: Evaluation A (Pre-1980)
  mutagenic call: inactive; negative
Species/Cell Type: Drosophila melanogaster, Assay Type: Aneuploidy, sex chromosome gain, chromosome aberrations, Assay Code: DAGT, Evaluation Type: Evaluation A (Pre-1980)
  mutagenic call: no conclusion
Species/Cell Type: Drosophila melanogaster, Assay Type: Aneuploidy, whole sex chromosome loss, chromosome aberrations, Assay Code: DAC-M, Evaluation Type: Evaluation A (Pre-1980)
  mutagenic call: inactive; negative
Species/Cell Type: Drosophila melanogaster, Assay Type: Sex-linked recessive lethal gene mutation, Assay Code: SRLT, Evaluation Type: Evaluation A (Pre-1980)
  mutagenic call: no conclusion
[8]
  mutagenic call: active; positive
Species/Cell Type: Fischer rat embryo (RLV/1706) cells, Assay Type: Cell transformation, viral enhanced, Assay Code: CTR+, Evaluation Type: Evaluation A (Pre-1980)
  mutagenic call: active; positive
Species/Cell Type: Glycine max (soybean), Assay Type: Gene mutation, Assay Code: GLM-, Evaluation Type: Evaluation A (Pre-1980)
  mutagenic call: inactive; negative
Species/Cell Type: Human diploid fibroblasts, Assay Type: Unscheduled DNA synthesis (UDS) in vitro, DNA effects, Assay Code: UDH-, Evaluation Type: Evaluation A (Pre-1980)
  mutagenic call: inactive; negative
Species/Cell Type: Human lymphocytes or leukocytes, Assay Type: Chromosome aberrations in vitro, Assay Code: CY7-, Evaluation Type: Evaluation A (Pre-1980)
  mutagenic call: inactive; negative
Species/Cell Type: Mouse (BALB/c-3T3) cells, Assay Type: Cell transformation, Assay Code: CTB-, Evaluation Type: Evaluation A (Pre-1980)
  mutagenic call: inactive; negative
Species/Cell Type: Neurospora crassa, Assay Type: Forward gene mutation, Assay Code: NEF+, Evaluation Type: Evaluation A (Pre-1980)
  mutagenic call: active; positive
Species/Cell Type: Nonhuman, Assay Code: CCGT, Evaluation Type: Evaluation A (Pre-1980)
  call: no conclusion
Species/Cell Type: Nonhuman, Assay Type: Sister-chromatid exchange (SCE) in vitro, Assay Code: SC2+D, Dose Response: With dose response, Evaluation Type: Evaluation B (Post-1980)
  mutagenic call: active; positive
[12]
  mutagenic call: active; positive
[10]
  mutagenic call: active; positive
[11]
  mutagenic call: inactive; negative
Species/Cell Type: Schizosaccharomyces pombe, Assay Type: Forward gene mutation, Assay Code: YEY+, Evaluation Type: Evaluation A (Pre-1980)
  mutagenic call: active; positive
[2]
  mutagenic call: inactive; negative
Species/Cell Type: Vicia faba, Assay Type: Chromosome aberrations, Assay Code: VIC+, Evaluation Type: Evaluation A (Pre-1980)
  mutagenic call: active; positive

## Cc1cn([C@H]2CC[C@@H](COP(=O)(O)OP(=O)(O)OP(=O)(O)O)O2)c(=O)[nH]c1=O
Species/Cell Type: Nonhuman, Assay Type: Sister-chromatid exchange (SCE) in vitro, Assay Code: SC2T, Evaluation Type: Evaluation B (Post-1980)
  mutagenic call: no conclusion

## CC[C@H](C)[C@@H]1NC(=O)CNC(=O)[C@@H]2Cc3c([nH]c4cc(O)ccc34)S(=O)C[C@H](NC(=O)CNC1=O)C(=O)N[C@@H](CC(N)=O)C(=O)N1C[C@H](O)C[C@H]1C(=O)N[C@@H]([C@@H](C)[C@@H](O)CO)C(=O)N2 (stereo not given in full)
Species/Cell Type: Drosophila melanogaster, Assay Type: Aneuploidy, whole sex chromosome loss, chromosome aberrations, Assay Code: DACT, Evaluation Type: Evaluation A (Pre-1980)
  mutagenic call: no conclusion

## CCN(CC)CCOC(=O)c1ccc(N)cc1
Species/Cell Type: Escherichia coli polA (W3119 vs P3478), Assay Type: Rec-assay, DNA effects (bacterial DNA repair), Assay Code: RE1T, Evaluation Type: Evaluation A (Pre-1980)
  mutagenic call: no conclusion
[6]
  mutagenic call: no conclusion

## CC(=O)OCCN(CCOC(C)=O)N=O
[1]
  mutagenic call: no conclusion

## C=CCOc1nc2c(c(=O)n(C)c(=O)n2C)n1C
[4]
  mutagenic call: active; positive

## CC(C)C[C@@H](N)[C@H](O)C(=O)N[C@H](C(=O)N[C@H](C(=O)N[C@@H](CC(=O)O)C(=O)O)C(C)C)C(C)C
[5]
  mutagenic call: no conclusion

## O=C[C@H](O)[C@@H](O)[C@H](O)[C@H](O)CO
[9]
  mutagenic call: no conclusion
Species/Cell Type: Mouse, Sex: Male, Assay Type: Sperm morphology, Assay Code: SPI-, Evaluation Type: Evaluation A (Pre-1980)
  mutagenic call: inactive; negative

## CC(C)CCC[C@@H](C)[C@H]1CC[C@H]2[C@@H]3CC=C4C[C@@H](O)CC[C@]4(C)[C@H]3CC[C@]12C
[2]
  mutagenic call: inactive; negative

## CCCCN(N=O)C(CCC)OC(C)=O (stereo not given)
Species/Cell Type: Salmonella typhimurium (one or more of the five standard strains: TA98, TA100, TA1535, TA1537, and TA1538), Assay Type: Histidine reverse gene mutation, Ames assay, Assay Code: SAL+, Evaluation Type: Evaluation A (Pre-1980)
  mutagenic call: active; positive

From PubChem BioAssay AID1259408 (Genetic Toxicology Data Bank (GENE-TOX), 2018)
